Reference: patent US20260199514A1, “PRODRUG STRATEGY THAT ENHANCES EFFICACY AND LOWERS SYSTEMIC TOXICITY OF MERTANSINE” (priority 2022, published 2026)

Legend:
[1] = system: NCI-H929 MM Cells; assay: In vitro cytotoxicity assay (CCK-8); type: cell-based, human; conditions: NCI-H929 cell line
Experimental: Next, we evaluated the efficacy of liposomal DM1-Prodrug formulations against MM cells in vitro. For this, NCI-H929 cells were incubated with NP[Prodrug], TNP[Prodrug], free DM1-Prodrug or free drug for 24 h, 48 h and 72 h, and cell viability was determined using cell counting kit-8 (CCK-8) reagent. […] The differences in the IC50 values between free drug and the nanoparticles is possibly attributed to the release kinetics of active DM1 from nanoparticles.
Cell Culture. NCI-H929 cells were purchased from ATCC (Rockville, MD). Cells were cultured in RPMI 1640 media (Corning, NY). The cell line was supplemented with 20% fetal bovine serum (FBS), 2 mM L-Glutamine (Gibco, CA), 100U/mL penicillin (Gibco, CA), 100 μg/mL streptomycin (Gibco) and 55 μM 2-mercaptoethanol.
Cytotoxicity Assays. 15×10^3 cells/well were plated 24 h prior to each experiment in a 96-well plate. The following day, cells were treated with respective cytotoxic agents at varying concentrations. Cytotoxicity was assessed at 24 h, 48 h and 72 h using Cell Counting Kit-8 Reagent via reading absorbance at 450 nm. Viability was normalized to wells containing untreated cells.

[2] = system: NCI-H929 cells; assay: Apoptosis assay (Annexin-V / PI staining); type: cell-based, human; conditions: 20 nM equivalence of DM1, 24 h, Annexin-V and PI
Experimental: NCI-H929 cells were incubated with 20 nM equivalence of DM1 concentration either in the form of one of the liposomal prodrug formulations, or the free drug for 24 h.
Apoptosis Assay. NCI-H929 cells were cultured in the presence of 20 nM of DM1 equivalent concentrations of NP[Prodrug], TNP[Prodrug], and free drug for 24 h. Cells were washed and stained using the Dead Cell Apoptosis Kit by following and optimizing the manufacturer's protocol. Briefly, cells were washed with cold PBS, resuspended in 1X binding buffer, followed by Annexin-V and PI staining for 30 min at room temperature. Staining was performed by adding 7 μL of Alexa Fluor® 488 Annexin-V and 8 μL of 100 μg/mL PI working solution to each 100 μL of cell suspensions. Cells in treatment groups and untreated control were stained with Annexin-V and PI. Fluorescent microscopy images were acquired by using an EVOS® FL Auto Imaging System.

[3] = Maximum tolerated dose (MTD) study in healthy mice; type: in vivo; conditions: healthy NOD-SCID mice
Experimental: When mice were injected with free DM1 at a dose over 0.5 mg/kg twice on days 0 and 3, we observed that all animals lost over 15% of their body weight and were morbid before the end of the week (FIG. 5). […] We concluded that liposomal prodrug formulations made treatment with DM1 possible in comparison to free DM1, where its intense systemic toxicity made it a non-viable treatment option. With this approach of liposomal prodrug formulation, even the non-targeted formulations already achieved an improved therapeutic index for DM1.
Maximum Tolerated Dose (MTD) Study. […] Free drug (DM1) was administered according to the recommendations of the manufacturer. Briefly, Free drug treatments were prepared by dissolving in 10% DMSO and 90% saline containing (20% Hydroxypropyl-β-cyclodextrin as excipient) and then administered intravenously into mice.

COc1cc2cc(c1Cl)N(C)C(=O)C[C@H](OC(=O)[C@H](C)N(C)C(=O)CCS)[C@]1(C)O[C@H]1[C@H](C)[C@@H]1C[C@@](O)(NC(=O)O1)[C@H](OC)/C=C/C=C(\C)C2 [free DM1, Mertansine]
IC50 ([1]; 24 hours): 12 nM
IC50 ([1]; 72 hours): 9 nM
induction of apoptosis of MM cells [2]: induce apoptosis
body weight loss ([3]; dose over 0.5 mg/kg twice on days 0 and 3): over 15%
toxicity / side-effects in MTD study ([3]; injections on days 0 and 3, equivalent DM1 doses (nanoparticles up to 4 mg/kg)): morbid
